For data set [1], the system named is unc-52 RNA. Briefly: Real time quantitative PCR, unc-52. The data set is classed as in vivo, Caenorhabditis elegans. The conditions noted are these: 50 μM ThT, 12 days of treatment. The procedure:
(§1) Twelve single adults from control or 50 μM ThT populations were picked after 3, 6 and 12 days of treatment into 5 μl of distilled water and flash frozen until extraction. Individual worms were extracted using the RNeasy Micro Kit, TissueLyser and QIAcube (Qiagen). Using the manufacturer's standard Animal Tissue protocol, each sample was homogenized in buffer RLT/Bme (Qiagen) on the TissueLyser (6 min total at 20 Hz). Samples, reagents and columns were then loaded into the QIAcube robot, and processed using the “RNeasy Micro—Animal tissues and cells—DNase digest” program. Each sample was then eluted in 14 μl of Nuclease-free water. cDNA templates for the Real Time PCR reactions were made using a combination of Message Sensor RT kit (Ambion's) and TaqMan PreAmp Master Mix (Applied Biosystems). The entire worm sample was added to the RT reaction and reversed transcribed at 50° C. for 20 min, using Message Sensor's “Two Step RT-PCR Protocol” (sample RT's were randomized). Then 2.5 μl of the cDNA sample was pre-amplified with a “4×Multiplex Primer Mix” for 14 cycles using TaqMan PreAmp master mix and protocol (ABI). Two modifications were made to ABI's protocol: 1. the reaction volume was reduced to 10 μl and 2. after pre-amplification, each cDNA sample was diluted 1:5 with 1XTE Buffer (Promega). cDNA samples were stored at −20° C. until needed. […]

The test system of data set [2] is wildtype (N2) C. elegans. Briefly: Lifespan assay, wildtype worms. The data set is classed as in vivo. The procedure: Lifespan assays were performed as described previously. (McColl, G. et al. Pharmacogenetic analysis of lithium-induced delayed aging in Caenorhabditis elegans. J Biol Chem 283, 350-357 (2008). Briefly, the nematode growth media (NGM) plates were prepared under sterile conditions. 100 μL of concentrated stocks of each of the compounds used in this study were added onto a previously prepared NGM small plate (3 mL volume) immediately spread over the surface of the plate. The final concentrations quoted in the text assume an even distribution of compound throughout the 3 ml plate. The plates were then placed in a laminar flow hood at room temperature for 30 min and then 60 μL of a concentrated suspension of E. coli OP50 was spotted to form a circular lawn on the center of each plate. […] The first day of adulthood is Day 3 in survival curves. There was between-experiment variation in the magnitude of the lifespan extension observed with ThT which appeared to correlate with different suppliers and batches. ThT concentration should be optimized depending on batch and purity and stability of the compound. […] The optimal range for lifespan extension was between 25 and 75 μM.
Animals were scored as alive, dead or lost every other day. […] Animals that died from causes other than ageing, such as sticking to the plate walls, internal hatching of eggs (“bagging”) or gonadal extrusion were censored as were lost worms. Animals were transferred to fresh plates every 3-6 days. All lifespan experiments were performed at 20° C. unless otherwise stated. Survival curves were plotted and statistical analyses (log-rank test) were performed using the Prism 4 software (Graphpad™ Software, Inc., San Diego, Calif., USA).

Data set [3] relates to chn-1 RNA. Put plainly: Real time quantitative PCR, chn-1. In kind it is in vivo, Caenorhabditis elegans. The conditions noted are these: 50 μM ThT, 3 and 6 days of treatment. The procedure:
as §1

Data set [4] concerns ZZ26 unc-63(x26)I. The following applies: 50 μM levamisole, after 3 days of treatment. The procedure: Scoring for paralysis was initiated 2 and 8 days after temperature upshift for CL4176 and AM140, respectively. […] For sensitivity to EtOH or levamisole resistance, CW152 gas-1 (fc21) X and ZZ26 unc-63(x26)I worms were picked into 0.4 M EtOH or 50 μM levamisole, respectively, equilibrated for 5 min, and scored for paralysis as described above. Treated and untreated worms were compared with an unpaired t-test (implemented in Prism 4, Graphpad™ Software, Inc., San Diego, Calif., USA).

Where [5] appears, read: absence of FUdR, 50 μM, 20° C., 4 independent experiments.
The mark [6] stands for this setting: sterile N2 worms, 50 or 100 μM throughout adult life.

The results in this text go back to patent US20110081428A1, “Use of thioflavin-like compounds to increase life span and/or health span” (priority 2009, published 2011).

Regarding `Cc1ccc2c(c1)sc(-c1ccc(N(C)C)cc1)[n+]2C.[Cl-]` [ThT, 4-(3,6-dimethyl-1,3-benzothiazol-3-ium-2-yl)-N,N-dimethylaniline chloride], the “unc-52 RNA levels” value in data set [1] is recorded as “decreases the levels of unc-52”. Further, the “effect on lifespan at higher doses” value in data set [2] (500 μM) was “appears toxic and significantly shortens lifespan”. Moreover, in data set [2] (setting [5]), the “Average increase in median lifespan” value was 40% and the “increase in median lifespan, range over experiments” value was 30-70%. In data set [2] (setting [6]), the “increase in maximal lifespan” value is listed as 43-78% and the “increase in median lifespan” value is 60%. Further, in data set [3], the “chn-1 RNA levels” value is listed as “up-regulated”. Moreover, the levamisole resistance result in data set [4] is “increases levimisole resistance”.
